Test [1] has as its system CD34+ hematopoietic progenitor cells. The experiment in a line: megakaryocyte colony formation assay. It is filed as cell-based, human. The method, then:
Mean colony number per well of CD41 positive (CFU-MK) and negative (non-MK) colonies are plotted with SD (n=4 to 8, left panels). […] The experiment was repeated twice with each progenitor and obtained similar results. # • (B) Megakaryocyte differentiation was induced for 12 days from the CD34^+ progenitor cells and the cells were separated for CD41 expression. RNAs from non-differentiated cells (Day 0), differentiated cells (Day 12), and peripheral platelets were analyzed for expression of S1P receptors by RT-PCR. Expression of 2-microglobulin is shown as an internal control.
S1P was added to a megakaryocyte colony formation assay using CD34^+ hematopoietic progenitor cells in semi-solid culture. […] In order to examine the expression pattern of each S1P receptor during the in vitro maturation of megakaryocytes, CD34^+ progenitor cells were cultured in a liquid medium defined for megakaryocyte development, sorted for CD41 expression on day 12 of the culture, and subjected to RT-PCR analysis. Expression of S1P5 receptor in CD34^+ cells on day 0 was low and S1P1, S1P2, S1P3, and EDG6 were not detectable after 40 cycles (FIG. 6B). […] The pattern matched, although with different relative band intensities for EDG6 and S1P2, with the one seen in the platelet sample. […] The exact mechanisms by which S1P affects the differentiation however, remain to be elucidated. Among the receptors for S1P, we were most interested in the function of EDG6 in megakaryocytopoiesis, because EDG6 is expressed in the lung, and the lung is the second most prominent site of platelet production in body with a large population of terminally differentiated megakaryocytes in pulmonary microvessels. […]
Colony formation assay and preparation of CD41^+ cells: Cord blood CD34^+ cells and bone marrow CD34^+ cells (Bio Whittaker, Md.) were cultured in serum-free Iscove's modified Dulbecco's medium for 2 days. […] The chambers were incubated at 37° C. in a 5% CO2 atmosphere for 12 days then megakaryocyte colonies (CFU-MK) were stained for CD41 and scored following the manufacturer's procedure. […]

Test [2] has as its system HEL/EDG6 cells. The experiment in a line: Rho, Rac and cdc42 assays, HEL/EDG6. The note with it: HEL/EDG6, serum starvation, 1 μM S1P 1 minute. In kind it is cell-based, human. The procedure: (§1) To obtain an insight into potential mechanisms, we treated HEL/EDG6 and HEL/CV with a variety of cytoskeletal modulators in the presence of PMA. […] To test if suppression of the Rho-kinase pathway is responsible for the formation of cytosolic extensions, the cells were treated with C3 exoenzyme, a Rho inhibitor, before PMA treatment. […] Alternatively, activation of other Rho family GTPases might cause the process formation, since reciprocal regulation between Rho and Rac/Cdc42 is observed in some cell types [E. E. Sandera, et al., (1999)]. Activation of Rho, Rac, and Cdc42, were investigated in HEL/CV and HEL/EDG6 after serum starvation and subsequent stimulation with S1P.
(§2) Rho, Rac and cdc42 assays: Cells (5×10^6 for Cdc42 and Rac, 1×10^7 for Rho) were harvested and lysed with 50 mM Tris (pH 7.5), 100 mM NaCl, 1% Triton X-100, 5 mM MgCl2 containing protease inhibitors (Complete™, EDTA-free, Roche Diagnostics, Germany). Cell lysates were clarified by centrifugation at 15000 g at 4° C. for 5 minutes, and incubated with PAK-1 PBD agarose, Rhotekin RBD agarose (Upstate, N.Y.) and GST-WASP GBD beads idndly provided by Tatsuo Kinashi, Kyoto University) at 4° C. for 45 minutes with constant rotation. […] The amounts of Rho, Rac, cdc42, and WASP in 20 μg of whole cell lysates were also analyzed by Western Blot. After incubating with HRP-conjugated secondary antibodies, the blots were developed with ECL-Plus (Amersham Biosciences, UK). For examination of Rho, Rac and cdc42 responses to S1P treatment, cells were maintained in RPMI1640 containing 0.1% fatty-acid free BSA (Sigma) overnight. Cells were harvested and suspended in PBS, and stimulated with 1 μM S1P at 37° C. for 1 minute before cell lysis. Rho, Rac, and cdc42 in 20 μg of the whole cell lysates were also analyzed by Western blot for examination of protein expression. WASP in 20 μg of the whole cell lysates was detected using an anti-WASP antibody (Sigma, Mo.).

Test [3] relates to HEL/CV cells. Description: Rho, Rac and cdc42 assays, HEL/CV. In kind it is cell-based, human. The note with it: serum starvation, 1 μM S1P 1 minute. The procedure: as §1, §2
Test [4] deals with T1, Edg-6 (Homo sapiens, UniProt O95977).
T1 construct: host or cells: Edg-6-transfected Chinese hamster ovary (CHO) cells and K562 cells
T1 sequence (O95977 1-384): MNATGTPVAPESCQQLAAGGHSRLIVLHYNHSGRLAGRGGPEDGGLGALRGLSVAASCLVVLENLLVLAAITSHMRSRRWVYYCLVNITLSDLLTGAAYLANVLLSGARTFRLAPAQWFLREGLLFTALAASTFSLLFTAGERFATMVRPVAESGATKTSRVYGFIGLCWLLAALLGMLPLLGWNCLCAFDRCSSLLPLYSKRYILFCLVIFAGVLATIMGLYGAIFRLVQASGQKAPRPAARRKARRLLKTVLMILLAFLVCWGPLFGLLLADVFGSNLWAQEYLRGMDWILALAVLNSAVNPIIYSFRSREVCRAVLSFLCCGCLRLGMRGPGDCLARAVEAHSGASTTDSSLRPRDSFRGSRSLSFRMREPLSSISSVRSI
The note with it: Edg-6-transfected CHO and K562 cells; cited from earlier work.

The target in test [5] is T1, Edg-6. To be noted: cited from earlier work; for increase in cytosolic Ca(2+) concentration: Edg-6-transfected CHO cells compared with vector-transfected cells.
Test [6] deals with HEL/EDG6 platelet-like particles. Description: PF4 release from platelet-like particles. In kind it is cell-based, human. The note with it: 100 nM PMA or 50 μM ADP 10 min; 0.5 units/ml thrombin 2 min; data not shown. The method, then: During propagation of HEL/EDG6, we observed an accumulation of small particles in the culture supernatant. They were harvested by two-step sedimentation centrifugation and analyzed. […] In order to investigate if the platelet-like particles were functional, they were stimulated and the release of Platelet Factor IV (PF4) was measured as a platelet functional marker. […] The low sensitivity to ADP raised a question about the full functionality of the particles as platelets. In order to examine whether it is due to lack of the appropriate ADP receptors, we performed RT-PCR analysis. There are two ADP receptors identified in platelets, ubiquitous P2Y1, and platelet-specific P2Y12. We detected P2Y1 expression in HEL cells stably transformed with an empty vector (HEL/CV), HEL/EDG6, and platelets. In contrast, P2Y12 was detected in HEL/EDG6 and platelets, but not in HEL/CV. […] The low responsiveness of the particles to ADP thus is likely due to desensitization of the ADP receptors, since the particles were prepared from a long-term culture and had been inevitably exposed to cellular components during culture. Alternatively the density of the particles may not have been high enough to exert a positive feedback amplified by mediators released from nearby particles.
Isolation of platelets and platelet-like particles: Blood from healthy donors was collected into centrifuge tubes containing 20 mM sodium dyhydrogenphosphate dehydrate, 17 mM citric acid, 90 mM sodium citrate, and 13 mM Dextrose. HEL/S1P4 cells were cultured until cells released cytoplasmic particles (typically 10-18 days). Preparations were centrifuged at 200 g for 15 minutes. Supernatants obtained were centrifuged at 1600 g for 15 minutes. Sediments containing platelets or platelet-like particles were used in the experiments.
PF4 release: Platelet-like particles were suspended in Dulbecco's modified Eagle medium (DMEM) and stimulated with 100 nM PMA or 50 μM ADP for 10 minutes. […] Platelet factor 4 in supernatants was measured with ZymutestPF4 enzyme-linked immunosorbent assay (Hyphen BioMed, France).

Test [7] deals with HEL/EDG6 cells. The experiment in a line: morphogenesis assay, HEL/EDG6. In kind it is cell-based, human. The note with it: 72 hours. The procedure: as §1
Another test deals with HEL cells. Description: morphogenesis assay, HEL parental cells. It is filed as cell-based, human. The note with it: PMA 10 nM, 72 hours. From the text: Small particles (arrowhead) and a particle about to bud off from the cytosolic extension (arrow) are seen in HEL/S1P4 treated with PMA.
As reported, HEL parental cells develop into polyploidal large adherent cells with PMA treatment. […] Depositions of small particles and particles about to bud off from the end of the projections were also observed (FIG. 7). […] The observed prominent change of phenotype, thus can potentially be attributed to a rapid accumulation of S1P after treatment of PMA. As PMA is a pleiotropic substance, it is not easy to elucidate direct roles of sphingosine kinase in the phenomena.
Morphogenesis assay: Ten million cells were plated on a 24-well plate with or without 30 μM of the Rho-kinase inhibitor Y27632 (Calbiochem, CA). PMA (10 nM final) was added to the culture 30 minutes after plating. Cells were cultured for 72 hours and photographed. For studies using C3 exoenzyme, 2×10^5 cells in 0.5 ml culture medium were plated on a 24-well plate with or without 3 μg/ml of C3 exsoenzyme (Upstate, N.Y.), and cultured overnight. Fresh culture medium containing PMA and C3 exoenzyme was added to each well to give final PMA and C3 exoenzyme concentrations at 10 nM and 3 μg/ml, respectively. Cells were cultured for 72 hours and photographed.

Test [8] has as its system HEL/CV cells. Description: morphogenesis assay, HEL/CV. It is filed as cell-based, human. To be noted: with PMA 10 nM, Y27632 30 μM or C3 exoenzyme 3 μg/ml, 72 hours. The method, then: as §1

On to `CCCCCCCCCCCCC/C=C/[C@@H](O)[C@@H](N)COP(=O)(O)O` [S1P, sphingosine 1-phosphate], for which, in [1] (10 μM S1P at beginning of culture, CD34+ cells from bone marrow and cord blood, 12 days), the “number of megakaryocyte colony forming units (CFU-MK)” value is reported as “significantly reduced”. Moreover, in test [1] (10 μM S1P, CD34+ cells from bone marrow and cord blood), the CFU-nonMK numbers result was “remained unchanged or increased slightly”. For the same compound, the “% CFU-MK” value in test [1] (10 μM S1P, cord blood or bone marrow CD34+ cells, Student's t-test) is listed as “Significantly lower”. Moreover, the GTP-Rac entry with HEL/EDG6 cells [2] was “up-regulation”. For the same compound, in the test on HEL/EDG6 cells [2] (data not shown), the GTP-Cdc42 entry is listed as “increased” and the GTP-Rho entry was “decreased”. Moreover, in the test on HEL/CV cells [3], the GTP-Rac entry is given as “up-regulation”. In the test on HEL/CV cells [3] (data not shown), the GTP-Cdc42 increase result is listed as “not in HEL/CV cells” and the GTP-Rho decrease entry is reported as “not in HEL/CV cells”. Besides, the “displacement of [(3)H]S1P binding” value at Edg-6 [4] is “displaced the [(3)H]S1P binding”. For the same compound, the “increase in cytosolic Ca(2+) concentration” value at Edg-6 [5] is reported as “clearly enhanced”.
For the compound `CCCCCCCCCCCCCC(=O)O[C@@H]1[C@@H](C)[C@@]2(O)[C@@H](C=C(CO)C[C@]3(O)C(=O)C(C)=C[C@@H]23)[C@@H]2C(C)(C)[C@]12OC(C)=O` [PMA], in [6], the “release of Platelet Factor IV (PF4)” value was “significant amounts”. Further, the “cell morphology after PMA treatment” value is given as “formation of polyploidal large adherent cells with extended cytoplasmic projections resembling megakaryocyte processes” with HEL/EDG6 cells [7] (HEL/EDG6, PMA 10 nM) and “induced large adherent cells” in the test on HEL cells.
Take lysophosphatidic acid [LPA]: at Edg-6 [4], the “displacement of [(3)H]S1P binding” value is “inactive”. The “increase in cytosolic Ca(2+) concentration” value at Edg-6 [5] is given as “without change”.
For the compound thrombin, the “release of Platelet Factor IV (PF4)” value in [6] is listed as “significant amounts”.
Still for that read-out and setting: the result for `Nc1ncnc2c1ncn2[C@@H]1O[C@H](COP(=O)(O)OP(=O)(O)O)[C@@H](O)[C@H]1O` [ADP] reads “only minor amounts”.
Regarding `C[C@@H](N)[C@H]1CC[C@H](C(=O)Nc2ccncc2)CC1` [Y27632], the “cytosolic extensions / morphology with cytoskeletal modulator” value in the test on HEL/EDG6 cells [7] (HEL/EDG6, with PMA 10 nM, Y27632 30 μM or C3 exoenzyme 3 μg/ml) is listed as “did not induce any further effect”; in the test on HEL/CV cells [8], “induced cytosolic extensions”.
For pertussis toxin, at Edg-6 [5] (CHO and K562 cells expressing Edg-6, pertussis toxin treatment), the “effect on lipid-induced actions (S1P, SPC)” value is on record as “markedly suppressed”.
For `CCCCCCCCCCCCC/C=C/[C@@H](O)[C@@H](N)COP(=O)([O-])OCC[N+](C)(C)C` [SPC], the “displacement of [(3)H]S1P binding” value at Edg-6 [4] was “displaced the [(3)H]S1P binding”. In addition, on Edg-6 [5], the “increase in cytosolic Ca(2+) concentration” value is recorded as “clearly enhanced”.
